From patent US20230278972A1, “SUBSTITUTED HALOALKYL SULFONANILIDE HERBICIDES” (FMC Corporation, priority 2020, published 2023)

Assays:
Type in all cases: in vivo
[1] = system: barnyardgrass (Echinochloa crus-galli); assay: Test A preemergence, barnyardgrass; details: Preemergence; for Barnyardgrass plant response rating: 125 g ai/ha, visual injury on 0 to 100 scale (0 no effect, 100 complete control), approximately 10 days; for Plant response rating, Barnyardgrass: 500 g ai/ha, 0 to 100 scale (0 no effect, 100 complete control)
In short: (§1)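 Test chemicals, formulated in a non-phytotoxic solvent mixture with surfactant, were sprayed postemergence on plants 2 to 10 cm tall at the one- to two-leaf stage. Preemergence treatment was a directed soil spray onto freshly seeded pots. Both used a loam soil and sand blend.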

[2] = system: kochia (Bassia scoparia); assay: Test A preemergence, kochia; details: Preemergence; for Kochia plant response rating: 125 g ai/ha, visual injury on 0 to 100 scale (0 no effect, 100 complete control), approximately 10 days; for Plant response rating, Kochia: 500 g ai/ha, 0 to 100 scale (0 no effect, 100 complete control)
In short: as §1

[3] = system: ragweed (common ragweed, Ambrosia artemisiifolia); assay: Test A preemergence, ragweed; details: Preemergence; for Ragweed plant response rating: 125 g ai/ha, visual injury on 0 to 100 scale (0 no effect, 100 complete control), approximately 10 days; for Plant response rating, Ragweed: 500 g ai/ha, 0 to 100 scale (0 no effect, 100 complete control)
In short: as §1

[4] = system: Ryegrass, Italian (Italian ryegrass, Lolium multiflorum); assay: Test A preemergence, Ryegrass, Italian; details: Preemergence; for Ryegrass, Italian plant response rating: 125 g ai/ha, visual injury on 0 to 100 scale (0 no effect, 100 complete control), approximately 10 days; for Plant response rating, Ryegrass, Italian: 500 g ai/ha, 0 to 100 scale (0 no effect, 100 complete control)
In short: as §1

[5] = system: Foxtail, Giant (giant foxtail, Setaria faberi); assay: Test A preemergence, Foxtail, Giant; details: Preemergence; for Foxtail, Giant plant response rating: 125 g ai/ha, visual injury on 0 to 100 scale (0 no effect, 100 complete control), approximately 10 days; for Plant response rating, Foxtail, Giant: 500 g ai/ha, 0 to 100 scale (0 no effect, 100 complete control)
In short: as §1

[6] = system: pigweed (Amaranthus retroflexus); assay: Test A preemergence, pigweed; details: for Pigweed plant response rating: 125 g ai/ha, visual injury on 0 to 100 scale (0 no effect, 100 complete control), approximately 10 days; for Plant response rating, Pigweed: 500 g ai/ha, 0 to 100 scale (0 no effect, 100 complete control)
In short: (§2)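 Preemergence: pigweed seeds in loam soil–sand blend received a directed soil spray of test chemicals in a non-phytotoxic solvent with surfactant. Postemergence: barnyardgrass, wheat and galium in pots of the same soil, 2 to 10 cm tall at one- to two-leaf stage, sprayed with the same formulation.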

[7] = system: barnyardgrass (Echinochloa crus-galli); assay: Test A postemergence, barnyardgrass; details: Postemergence, 0 to 100 scale (0 no effect, 100 complete control); for Plant response rating, Barnyardgrass: 125 g ai/ha, visual injury approx. 10 days; for Barnyardgrass plant response rating: 500 g ai/ha, visual injury vs untreated controls after approx. 10 days
In short: as §2

[8] = system: kochia (Bassia scoparia); assay: Test A postemergence, kochia; details: Postemergence, 0 to 100 scale (0 no effect, 100 complete control); for Plant response rating, Kochia: 125 g ai/ha, visual injury approx. 10 days; for Kochia plant response rating: 500 g ai/ha, visual injury vs untreated controls after approx. 10 days
In short: as §1

[9] = system: ragweed (common ragweed, Ambrosia artemisiifolia); assay: Test A postemergence, ragweed; details: Postemergence, 0 to 100 scale (0 no effect, 100 complete control); for Plant response rating, Ragweed: 125 g ai/ha, visual injury approx. 10 days; for Ragweed plant response rating: 500 g ai/ha, visual injury vs untreated controls after approx. 10 days
In short: as §1

[10] = system: Ryegrass, Italian (Italian ryegrass, Lolium multiflorum); assay: Test A postemergence, Ryegrass, Italian; details: Postemergence, 0 to 100 scale (0 no effect, 100 complete control); for Plant response rating, Ryegrass, Italian: 125 g ai/ha, visual injury approx. 10 days; for Ryegrass, Italian plant response rating: 500 g ai/ha, visual injury vs untreated controls after approx. 10 days
In short: as §1

[11] = system: Foxtail, Giant (giant foxtail, Setaria faberi); assay: Test A postemergence, Foxtail, Giant; details: Postemergence, 0 to 100 scale (0 no effect, 100 complete control); for Plant response rating, Foxtail, Giant: 125 g ai/ha, visual injury approx. 10 days; for Foxtail, Giant plant response rating: 500 g ai/ha, visual injury vs untreated controls after approx. 10 days
In short: as §1

[12] = system: pigweed (Amaranthus retroflexus); assay: Test A postemergence, pigweed; details: Postemergence, 0 to 100 scale (0 no effect, 100 complete control); for Plant response rating, Pigweed: 125 g ai/ha, visual injury approx. 10 days; for Pigweed plant response rating: 500 g ai/ha, visual injury vs untreated controls after approx. 10 days
In short: as §1

[13] = system: wheat (Triticum aestivum); assay: Test A postemergence, wheat; details: Postemergence, 0 to 100 scale (0 no effect, 100 complete control); for Plant response rating, Wheat: 125 g ai/ha, visual injury approx. 10 days; for Wheat plant response rating: 500 g ai/ha, visual injury vs untreated controls after approx. 10 days
In short: as §2

[14] = system: corn (Zea mays); assay: Test A postemergence, corn; details: Postemergence, 0 to 100 scale (0 no effect, 100 complete control); for Plant response rating, Corn: 125 g ai/ha, visual injury approx. 10 days; for Corn plant response rating: 500 g ai/ha, visual injury vs untreated controls after approx. 10 days
In short: as §1

[15] = system: blackgrass (Alopecurus myosuroides); assay: Test A postemergence, blackgrass; details: Postemergence, 0 to 100 scale (0 no effect, 100 complete control); for Plant response rating, Blackgrass: 125 g ai/ha, visual injury approx. 10 days; for Blackgrass plant response rating: 500 g ai/ha, visual injury vs untreated controls after approx. 10 days
In short: as §1

[16] = system: galium (catchweed bedstraw, Galium aparine); assay: Test A postemergence, galium; details: Postemergence, 0 to 100 scale (0 no effect, 100 complete control); for Plant response rating, Galium: 125 g ai/ha, visual injury approx. 10 days; for Galium plant response rating: 500 g ai/ha, visual injury vs untreated controls after approx. 10 days
In short: as §2

SMILES	Barnyardgrass plant response rating [1]	Plant response rating, Barnyardgrass [1]	Kochia plant response rating [2]	Plant response rating, Kochia [2]	Ragweed plant response rating [3]	Plant response rating, Ragweed [3]	Ryegrass, Italian plant response rating [4]	Plant response rating, Ryegrass, Italian [4]	Foxtail, Giant plant response rating [5]	Plant response rating, Foxtail, Giant [5]	Pigweed plant response rating [6]	Plant response rating, Pigweed [6]	Plant response rating, Barnyardgrass [7]	Barnyardgrass plant response rating [7]	Plant response rating, Kochia [8]	Kochia plant response rating [8]	Plant response rating, Ragweed [9]	Ragweed plant response rating [9]	Plant response rating, Ryegrass, Italian [10]	Ryegrass, Italian plant response rating [10]	other results
CCn1nccc(-c2cc(NS(=O)(=O)C(F)(F)F)c(C)cc2C)c1=O [Compound 79]	100	100	70	90	80	90	90	100	100	100	90	100	80	90	40	70	30	80	40	80	Plant response rating, Foxtail, Giant [11]: 90; Foxtail, Giant plant response rating [11]: 90; Plant response rating, Pigweed [12]: 30; Pigweed plant response rating [12]: 80; Plant response rating, Wheat [13]: 70; Wheat plant response rating [13]: 80; Plant response rating, Corn [14]: 10; Corn plant response rating [14]: 70; Plant response rating, Blackgrass [15]: 30; Blackgrass plant response rating [15]: 30; Plant response rating, Galium [16]: 90; Galium plant response rating [16]: 90
Cc1cc(C)c(-c2ccnn(C)c2=O)cc1NS(=O)(=O)C(F)(F)F [Compound 80]	90	90	80	80	70	90	90	90	90	100	60	90	70	90	40	70	90	90	70	80	Plant response rating, Foxtail, Giant [11]: 90; Foxtail, Giant plant response rating [11]: 90; Plant response rating, Pigweed [12]: 70; Pigweed plant response rating [12]: 70; Plant response rating, Wheat [13]: 60; Wheat plant response rating [13]: 80; Plant response rating, Corn [14]: 20; Corn plant response rating [14]: 80; Plant response rating, Blackgrass [15]: 60; Blackgrass plant response rating [15]: 100; Plant response rating, Galium [16]: 90; Galium plant response rating [16]: 90
COc1cc(C)c(NS(=O)(=O)C(F)(F)F)cc1-c1ccnn(C)c1=O [Compound 81]	90	90	0	80	30	40	30	50	100	100	30	100	70	80	40	50	20	60	0	60	Plant response rating, Foxtail, Giant [11]: 90; Foxtail, Giant plant response rating [11]: 90; Plant response rating, Pigweed [12]: 20; Pigweed plant response rating [12]: 60; Plant response rating, Wheat [13]: 40; Wheat plant response rating [13]: 60; Plant response rating, Corn [14]: 0; Corn plant response rating [14]: 20; Plant response rating, Blackgrass [15]: 0; Blackgrass plant response rating [15]: 70; Plant response rating, Galium [16]: 80; Galium plant response rating [16]: 90
Cc1cc(C)c(-n2nccc(Cl)c2=O)cc1NS(=O)(=O)C(F)(F)F [Compound 82]	40	80	70	90	0	20	20	40	0	60	90	80	60	20	0	0	0	30	0	0	Plant response rating, Foxtail, Giant [11]: 20; Foxtail, Giant plant response rating [11]: 50; Plant response rating, Pigweed [12]: 0; Pigweed plant response rating [12]: 40; Plant response rating, Wheat [13]: 0; Wheat plant response rating [13]: 0; Plant response rating, Corn [14]: 0; Corn plant response rating [14]: 40; Plant response rating, Blackgrass [15]: 0; Blackgrass plant response rating [15]: 0; Plant response rating, Galium [16]: 20; Galium plant response rating [16]: 10
